The target in assay [1] is T1, Estrogen receptor (Homo sapiens, UniProt P03372).
T1 sequence (P03372 whole entry): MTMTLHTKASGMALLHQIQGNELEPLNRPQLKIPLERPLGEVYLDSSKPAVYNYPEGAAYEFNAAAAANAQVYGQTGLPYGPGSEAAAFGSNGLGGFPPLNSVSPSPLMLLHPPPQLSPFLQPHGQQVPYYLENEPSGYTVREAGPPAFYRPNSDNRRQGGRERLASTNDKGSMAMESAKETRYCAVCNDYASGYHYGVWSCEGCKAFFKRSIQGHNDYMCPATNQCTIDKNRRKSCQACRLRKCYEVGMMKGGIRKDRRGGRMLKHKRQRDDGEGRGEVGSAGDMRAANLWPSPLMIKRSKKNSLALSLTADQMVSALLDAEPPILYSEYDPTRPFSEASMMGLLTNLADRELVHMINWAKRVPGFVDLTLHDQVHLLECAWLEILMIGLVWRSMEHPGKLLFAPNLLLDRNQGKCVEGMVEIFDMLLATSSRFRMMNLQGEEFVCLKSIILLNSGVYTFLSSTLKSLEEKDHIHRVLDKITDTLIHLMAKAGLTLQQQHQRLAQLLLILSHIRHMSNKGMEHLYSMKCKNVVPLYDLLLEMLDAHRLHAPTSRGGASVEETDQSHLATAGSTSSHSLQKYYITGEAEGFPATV

Assay [2] has as its target Mu-type opioid receptor (Homo sapiens, UniProt P35372).
The target in assay [3] is Histamine H3 receptor (Homo sapiens, UniProt Q9Y5N1).
Assay [4] has as its target T2, Progesterone receptor (Homo sapiens, UniProt P06401).
T2 sequence (P06401 whole entry): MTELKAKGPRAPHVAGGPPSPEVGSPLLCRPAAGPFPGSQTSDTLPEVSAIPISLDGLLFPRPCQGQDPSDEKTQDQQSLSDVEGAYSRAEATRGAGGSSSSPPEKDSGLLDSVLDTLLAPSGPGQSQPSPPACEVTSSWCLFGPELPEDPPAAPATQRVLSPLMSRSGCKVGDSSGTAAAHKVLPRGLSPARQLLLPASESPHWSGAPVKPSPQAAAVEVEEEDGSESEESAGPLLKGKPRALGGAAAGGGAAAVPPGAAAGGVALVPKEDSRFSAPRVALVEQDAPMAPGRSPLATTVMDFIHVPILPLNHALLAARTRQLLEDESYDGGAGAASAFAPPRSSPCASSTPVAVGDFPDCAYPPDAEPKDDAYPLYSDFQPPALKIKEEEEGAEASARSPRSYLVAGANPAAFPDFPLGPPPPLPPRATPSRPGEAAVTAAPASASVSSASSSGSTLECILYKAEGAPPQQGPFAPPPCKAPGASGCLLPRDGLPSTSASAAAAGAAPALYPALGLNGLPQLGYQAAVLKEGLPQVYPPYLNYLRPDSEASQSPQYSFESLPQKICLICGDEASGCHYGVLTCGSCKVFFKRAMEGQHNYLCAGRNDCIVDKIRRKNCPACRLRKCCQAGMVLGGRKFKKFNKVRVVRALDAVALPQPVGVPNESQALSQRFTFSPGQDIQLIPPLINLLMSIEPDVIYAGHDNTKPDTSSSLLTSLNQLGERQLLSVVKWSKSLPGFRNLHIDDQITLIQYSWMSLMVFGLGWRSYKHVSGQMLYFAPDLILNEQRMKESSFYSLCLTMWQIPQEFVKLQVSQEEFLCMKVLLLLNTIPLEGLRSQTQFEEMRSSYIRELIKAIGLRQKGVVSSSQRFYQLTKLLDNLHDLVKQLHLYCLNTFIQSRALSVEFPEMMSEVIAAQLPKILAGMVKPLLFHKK
In kind it is functional.

In assay [5] the target is T3, Alpha-1A adrenergic receptor (Homo sapiens, UniProt P35348).
T3 sequence (P35348 whole entry): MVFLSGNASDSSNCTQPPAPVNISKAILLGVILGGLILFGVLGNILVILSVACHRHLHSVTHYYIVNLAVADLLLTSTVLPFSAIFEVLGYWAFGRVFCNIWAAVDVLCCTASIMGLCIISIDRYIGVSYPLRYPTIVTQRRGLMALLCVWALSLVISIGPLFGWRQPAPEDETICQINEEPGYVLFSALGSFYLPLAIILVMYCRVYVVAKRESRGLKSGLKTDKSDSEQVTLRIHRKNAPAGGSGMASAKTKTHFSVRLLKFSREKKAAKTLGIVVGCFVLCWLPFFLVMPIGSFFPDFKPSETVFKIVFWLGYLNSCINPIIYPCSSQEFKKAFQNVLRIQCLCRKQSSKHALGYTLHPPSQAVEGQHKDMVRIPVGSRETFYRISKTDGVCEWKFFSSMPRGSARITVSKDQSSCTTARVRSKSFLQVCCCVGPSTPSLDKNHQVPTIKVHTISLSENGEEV
The format is functional, cell-based.

The target in assay [6] is T4, Amine oxidase [flavin-containing] A (Homo sapiens, UniProt P21397).
T4 sequence (P21397 whole entry): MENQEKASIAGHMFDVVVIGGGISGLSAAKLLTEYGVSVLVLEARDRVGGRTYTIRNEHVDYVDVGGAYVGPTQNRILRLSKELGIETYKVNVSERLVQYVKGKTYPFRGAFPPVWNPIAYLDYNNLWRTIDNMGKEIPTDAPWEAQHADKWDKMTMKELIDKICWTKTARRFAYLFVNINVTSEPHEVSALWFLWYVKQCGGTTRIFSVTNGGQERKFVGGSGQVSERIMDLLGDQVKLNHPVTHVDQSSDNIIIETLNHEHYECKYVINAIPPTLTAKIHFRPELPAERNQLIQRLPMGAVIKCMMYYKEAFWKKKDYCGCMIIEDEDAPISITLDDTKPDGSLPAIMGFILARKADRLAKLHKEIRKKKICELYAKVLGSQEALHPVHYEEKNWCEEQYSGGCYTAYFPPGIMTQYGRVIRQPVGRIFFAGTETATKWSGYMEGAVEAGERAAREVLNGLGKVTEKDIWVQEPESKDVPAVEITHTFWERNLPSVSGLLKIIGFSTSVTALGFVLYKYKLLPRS
In kind it is functional.

In assay [7] the target is cGMP-inhibited 3',5'-cyclic phosphodiesterase 3A (Homo sapiens, UniProt Q14432). In kind it is functional.
Assay [8] has as its target Sodium-dependent dopamine transporter (Homo sapiens, UniProt Q01959).
Assay [9] deals with Prostaglandin G/H synthase 1 (Homo sapiens, UniProt P23219). In kind it is functional.

Molecules are shown by their SMILES.
Note: assay procedure not described here.

Chain of Histamine H3 receptor (Q9Y5N1 whole entry): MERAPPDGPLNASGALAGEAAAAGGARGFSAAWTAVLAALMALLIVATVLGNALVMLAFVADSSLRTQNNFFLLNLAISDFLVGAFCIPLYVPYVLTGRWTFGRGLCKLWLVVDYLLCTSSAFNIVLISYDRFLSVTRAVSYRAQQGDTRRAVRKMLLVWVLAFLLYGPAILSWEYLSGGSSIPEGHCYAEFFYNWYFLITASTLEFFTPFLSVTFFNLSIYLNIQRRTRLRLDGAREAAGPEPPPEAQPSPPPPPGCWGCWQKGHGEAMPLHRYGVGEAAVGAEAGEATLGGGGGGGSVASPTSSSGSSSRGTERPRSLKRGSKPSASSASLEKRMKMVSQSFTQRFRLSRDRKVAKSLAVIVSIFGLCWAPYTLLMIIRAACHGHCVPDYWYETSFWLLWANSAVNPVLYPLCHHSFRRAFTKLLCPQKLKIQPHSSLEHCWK
Chain of Mu-type opioid receptor (P35372 whole entry): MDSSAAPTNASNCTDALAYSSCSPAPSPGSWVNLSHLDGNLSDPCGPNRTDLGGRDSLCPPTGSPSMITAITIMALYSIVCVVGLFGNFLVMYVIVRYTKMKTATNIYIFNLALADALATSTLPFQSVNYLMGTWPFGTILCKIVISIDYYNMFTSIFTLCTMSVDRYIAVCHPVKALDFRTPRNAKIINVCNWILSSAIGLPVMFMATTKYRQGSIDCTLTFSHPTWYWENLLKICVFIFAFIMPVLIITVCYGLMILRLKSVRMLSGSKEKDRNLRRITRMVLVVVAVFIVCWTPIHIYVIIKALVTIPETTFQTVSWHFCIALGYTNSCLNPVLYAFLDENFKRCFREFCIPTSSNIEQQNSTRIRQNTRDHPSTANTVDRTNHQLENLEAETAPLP
Chain of Sodium-dependent dopamine transporter (Q01959 whole entry): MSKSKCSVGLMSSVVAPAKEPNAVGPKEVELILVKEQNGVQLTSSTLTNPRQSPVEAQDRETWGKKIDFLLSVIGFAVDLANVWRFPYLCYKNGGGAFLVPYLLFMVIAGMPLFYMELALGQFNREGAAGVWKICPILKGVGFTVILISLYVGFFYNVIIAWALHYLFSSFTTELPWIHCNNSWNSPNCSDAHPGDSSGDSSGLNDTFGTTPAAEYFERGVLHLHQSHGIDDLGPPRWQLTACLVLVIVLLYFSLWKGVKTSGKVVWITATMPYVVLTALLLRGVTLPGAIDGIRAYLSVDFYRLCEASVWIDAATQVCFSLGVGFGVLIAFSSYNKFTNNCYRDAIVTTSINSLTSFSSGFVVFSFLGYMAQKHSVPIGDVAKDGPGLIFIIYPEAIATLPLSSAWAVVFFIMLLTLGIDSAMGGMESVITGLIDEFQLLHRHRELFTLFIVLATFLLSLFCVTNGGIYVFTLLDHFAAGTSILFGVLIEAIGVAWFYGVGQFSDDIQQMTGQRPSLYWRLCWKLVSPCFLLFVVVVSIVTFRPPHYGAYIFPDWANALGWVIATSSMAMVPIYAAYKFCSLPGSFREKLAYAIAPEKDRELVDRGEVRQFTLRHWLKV
Chain of cGMP-inhibited 3',5'-cyclic phosphodiesterase 3A (Q14432 whole entry): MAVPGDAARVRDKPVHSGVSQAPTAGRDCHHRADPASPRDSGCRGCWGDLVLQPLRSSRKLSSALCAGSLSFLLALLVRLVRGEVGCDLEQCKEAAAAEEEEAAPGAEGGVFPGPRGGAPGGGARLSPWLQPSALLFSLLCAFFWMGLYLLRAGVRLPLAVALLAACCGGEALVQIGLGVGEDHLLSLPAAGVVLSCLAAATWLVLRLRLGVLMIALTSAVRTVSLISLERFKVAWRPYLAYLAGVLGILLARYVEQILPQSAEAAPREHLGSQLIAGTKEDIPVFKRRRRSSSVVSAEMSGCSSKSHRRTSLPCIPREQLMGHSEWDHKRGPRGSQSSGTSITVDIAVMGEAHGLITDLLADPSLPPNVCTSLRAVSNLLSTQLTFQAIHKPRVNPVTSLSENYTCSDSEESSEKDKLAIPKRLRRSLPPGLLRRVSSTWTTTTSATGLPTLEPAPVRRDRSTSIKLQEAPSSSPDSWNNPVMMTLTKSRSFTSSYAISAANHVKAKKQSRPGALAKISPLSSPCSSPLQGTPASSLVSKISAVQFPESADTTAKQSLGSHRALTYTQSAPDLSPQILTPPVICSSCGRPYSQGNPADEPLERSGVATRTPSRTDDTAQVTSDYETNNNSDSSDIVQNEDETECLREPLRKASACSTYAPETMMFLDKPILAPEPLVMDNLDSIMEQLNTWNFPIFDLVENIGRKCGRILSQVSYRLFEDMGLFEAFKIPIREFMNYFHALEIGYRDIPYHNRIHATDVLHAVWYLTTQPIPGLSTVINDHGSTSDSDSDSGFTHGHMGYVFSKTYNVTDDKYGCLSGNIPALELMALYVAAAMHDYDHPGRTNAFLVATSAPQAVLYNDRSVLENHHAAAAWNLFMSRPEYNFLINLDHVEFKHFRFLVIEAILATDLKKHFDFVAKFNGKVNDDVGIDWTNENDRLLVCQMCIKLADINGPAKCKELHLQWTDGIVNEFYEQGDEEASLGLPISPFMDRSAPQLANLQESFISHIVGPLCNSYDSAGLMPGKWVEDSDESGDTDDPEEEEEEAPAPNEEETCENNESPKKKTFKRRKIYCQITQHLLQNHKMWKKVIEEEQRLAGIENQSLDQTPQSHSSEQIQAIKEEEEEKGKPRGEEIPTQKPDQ
Chain of Prostaglandin G/H synthase 1 (P23219 whole entry): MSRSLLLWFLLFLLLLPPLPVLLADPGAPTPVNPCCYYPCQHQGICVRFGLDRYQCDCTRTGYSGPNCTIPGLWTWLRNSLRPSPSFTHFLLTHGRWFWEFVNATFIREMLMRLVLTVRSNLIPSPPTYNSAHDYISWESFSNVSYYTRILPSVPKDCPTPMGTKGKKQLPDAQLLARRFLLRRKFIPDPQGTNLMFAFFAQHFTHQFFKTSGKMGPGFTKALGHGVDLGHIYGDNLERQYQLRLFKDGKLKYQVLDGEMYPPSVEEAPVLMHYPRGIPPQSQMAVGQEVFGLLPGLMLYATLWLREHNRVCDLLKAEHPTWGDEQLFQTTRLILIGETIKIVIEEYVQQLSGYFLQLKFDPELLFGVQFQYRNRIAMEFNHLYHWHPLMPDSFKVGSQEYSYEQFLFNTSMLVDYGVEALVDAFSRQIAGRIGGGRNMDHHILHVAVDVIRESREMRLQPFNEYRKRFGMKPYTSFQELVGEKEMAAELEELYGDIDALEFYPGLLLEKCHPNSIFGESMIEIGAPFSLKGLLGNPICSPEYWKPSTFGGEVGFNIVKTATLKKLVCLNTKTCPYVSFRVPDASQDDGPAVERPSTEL

Consider `CCC[C@H](NC(=O)[C@@H]1[C@H]2CCC[C@H]2CN1C(=O)[C@@H](NC(=O)[C@@H](NC(=O)c1cnccn1)C1CCCCC1)C(C)(C)C)C(=O)C(=O)NC1CC1`, for which the AC50 is greater than 30 µM in assay [1], greater than 30 µM in [2] and greater than 10 µM in assay [3].

Regarding `CN1CCC(=C2c3ccccc3CCc3cccnc32)CC1` [AZATADINE], the AC50 in [1] is greater than 30 µM; in assay [2], greater than 30 µM; in assay [3], greater than 10 µM.

Consider `CCCCC(=O)O[C@]1(C(=O)CO)[C@@H](C)C[C@H]2[C@@H]3CCC4=CC(=O)C=C[C@]4(C)[C@@]3(F)[C@@H](O)C[C@@]21C` [BETAMETHASONE VALERATE], for which the results for the AC50 in assay [1], in assay [2] and in assay [3] were greater than 30 µM, greater than 30 µM and greater than 10 µM, respectively.

In the case of `CC1OC2(CS1)CN1CCC2CC1` (configuration not stated) [CEVIMELINE], the AC50 in assay [1] was greater than 10 µM; in assay [4] it was greater than 10 µM; in [2] it was greater than 30 µM.

Turning to `CNC1=Nc2ccc(Cl)cc2C(c2ccccc2)=[N+]([O-])C1` [CHLORDIAZEPOXIDE], the AC50 is greater than 30 µM in assay [1], greater than 10 µM in assay [2] and greater than 10 µM in [3].

Consider `CC(C)(C)C(=O)OCC(=O)[C@H]1CC[C@H]2[C@@H]3CCC4=CC(=O)CC[C@]4(C)[C@H]3CC[C@]12C` [DESOXYCORTICOSTERONE PIVALATE], for which the AC50 is greater than 30 µM in [1], greater than 30 µM in assay [2] and greater than 10 µM in [3].

With `CC(CCc1ccc(O)cc1)NCCc1ccc(O)c(O)c1` (configuration not stated) [DOBUTAMINE], the AC50 was greater than 30 µM in [1], greater than 30 µM in assay [4], 1.7 µM in assay [2] and greater than 30 µM in assay [3].

On to `CCOC(=O)c1cncn1[C@H](C)c1ccccc1` [ETOMIDATE], for which the AC50 in assay [1] was greater than 10 µM; in assay [4], greater than 10 µM; in assay [2], greater than 30 µM; in [3] it was greater than 10 µM.

Take `CC(C(=O)O)c1ccc(-c2ccccc2)c(F)c1` (configuration not stated) [FLURBIPROFEN]: the AC50 in assay [5], in assay [1], in [6], in assay [7], in assay [8] and in assay [2] was greater than 30 µM in each case.

Turning to `CCC1(c2ccccc2)CCC(=O)NC1=O` (configuration not stated) [GLUTETHIMIDE], the AC50 in [1] is greater than 10 µM; in assay [4] it was greater than 10 µM; in assay [2], greater than 30 µM; in assay [3], greater than 10 µM.

Regarding `CC(C)NCC(O)c1ccc(O)c(O)c1` (configuration not stated) [ISOPROTERENOL], the results for the AC50 in [4], in assay [2] and in assay [3] were greater than 30 µM, greater than 30 µM and greater than 10 µM, respectively.

Regarding `C[C@H](Cc1ccc(O)c(O)c1)[C@@H](C)Cc1ccc(O)c(O)c1` [MASOPROCOL], the AC50 in assay [1] is 0.749 µM; in [2], greater than 30 µM; in assay [3] it was greater than 10 µM.

Turning to `OC1(c2ccc(Cl)cc2)c2ccccc2C2=NCCN21` (configuration not stated) [MAZINDOL], the AC50 in assay [1] was greater than 30 µM; in assay [4] it was greater than 30 µM; in assay [2], greater than 10 µM; in assay [3] it was greater than 30 µM.

As for `CC12CC3CC(C)(C1)CC(N)(C3)C2` [MEMANTINE], the AC50 was 1.6 µM in assay [1], greater than 10 µM in [2] and greater than 10 µM in assay [3].

As for `CCOC(=O)C1=C(C)NC(C)=C(C(=O)OC)C1c1cccc([N+](=O)[O-])c1` (configuration not stated) [NITRENDIPINE], the half-maximal activity concentration (AC50) is greater than 30 µM in assay [1], greater than 30 µM in assay [2] and greater than 10 µM in assay [3].

Take `[H]/N=C(/N)N/C(=N/[H])NCCc1ccccc1` [PHENFORMIN]: the AC50 is greater than 30 µM in assay [1], greater than 30 µM in assay [2] and greater than 10 µM in assay [3].

Consider `CCCCC1C(=O)N(c2ccccc2)N(c2ccccc2)C1=O` [PHENYLBUTAZONE], for which the AC50 in assay [1] was greater than 10 µM; in [4], greater than 10 µM; in [2] it was greater than 30 µM.

For `CC(N)C(O)c1ccccc1` (configuration not stated) [PHENYLPROPANOLAMINE], the AC50 in assay [2] and in assay [3] was greater than 10 µM in each case.

On to `CC[C@@H]([C@H](C)O)n1ncn(-c2ccc(N3CCN(c4ccc(OC[C@@H]5CO[C@@](Cn6cncn6)(c6ccc(F)cc6F)C5)cc4)CC3)cc2)c1=O` [POSACONAZOLE], for which the AC50 in [5], in assay [6], in assay [7], in assay [4], in assay [9] and in assay [8] was greater than 30 µM each time.

As to `CCCN[C@H]1CCc2nc(N)sc2C1` [PRAMIPEXOLE], the AC50 in assay [4] was greater than 30 µM; in assay [2], greater than 30 µM; in assay [3] it was greater than 10 µM.

Regarding `CNCc1ccc(-c2[nH]c3cc(F)cc4c3c2CCNC4=O)cc1` [RUCAPARIB], the AC50 in assay [1] and in assay [2] was greater than 30 µM in each case.

Consider `Cc1noc(NS(=O)(=O)c2ccc(N)cc2)c1C` [SULFISOXAZOLE], for which the AC50 is greater than 10 µM in assay [1], greater than 10 µM in assay [4], greater than 30 µM in assay [2] and greater than 10 µM in assay [3].

For the compound `CCC(=O)O[C@H]1CC[C@H]2[C@@H]3CCC4=CC(=O)CC[C@]4(C)[C@H]3CC[C@]12C` [TESTOSTERONE PROPIONATE], the AC50 in assay [1] and in [2] was greater than 30 µM in each case.

For the compound `Cc1cc2cc3c(C)cc(=O)oc3c(C)c2o1` [TRIOXSALEN], the AC50 in [1], in assay [4] and in assay [2] was greater than 30 µM each time.

In the case of `CCCC(CCC)C(N)=O` [VALPROMIDE], the AC50 is greater than 30 µM in assay [1], greater than 30 µM in [2] and greater than 10 µM in assay [3].

For `Cc1cc(C(C)(C)C)cc(C)c1CC1=NCCN1` [XYLOMETAZOLINE], the AC50 is 0.0003 µM in assay [5], greater than 30 µM in [1], greater than 30 µM in assay [4] and 6.9 µM in assay [3].

Source of the values: ChEMBL document CHEMBL5291721, “A preclinical secondary pharmacology resource illuminates target-adverse drug reaction associations of marketed drugs” (Nat Commun, 2023).
